We go through four substances from patent publication US20140328762A1, “Fluorogenic Peptide Probes and Assays” (priority 2011, published 2014).

The target in experiment [1] is E3 peptide. Put plainly: Fluorescence titration of K3-b1b3 beacon with E3 peptide. Type of experiment: binding. The procedure: (§1) All spectra data were obtained with Safire II microplate reader (TECAN). Data was acquired right after mixing the beacon with its target.
To further characterize the K3-b1b3 beacon, titration of lower concentration (10 nM) of K3-b1b3 beacon has also been performed.

A further experiment has as its target wild-type MBP (Escherichia coli, UniProt P0AEX9). Conditions: data not shown.
From the text: as §1
(§2) The application of using the K3-b1b3 beacon for detection of E3-fusion proteins has also been tested. For this purpose, a recombinant maltose binding protein (MBP) with E3 fused at its C-terminal end was created.

In the next experiment the target is MBP-E3 (Escherichia coli, UniProt P0AEX9). The note with it: data not shown.
From the text: as §2

Experiment [2] has as its system E3 peptide. The experiment is described as follows: Non-specific fluorescence enhancement (crosstalk) assay, FIG. 14, with E3 peptide. Format: binding. The note with it: 100 nM beacon, 10 μM E3 peptide, 580 nm, excitation 520 nm. The procedure: (§3) FIGS. 14A and 14B show bar graphs of relative fluorescence intensity versus different peptide beacons. Non-specific fluorescence enhancement of peptide beacons by various unrelated coiled coil-forming peptides is shown. All reagents other than the beacons are loaded to 10 μM. The data represent relative fluorescence intensity at 580 nm (bandwidth 20 nm) collected by excitation at 520 nm (band width 15 nm). (FIG. 14A) All samples contain 100 nM K3-b1b3 beacon. Columns A, B, C, D, E are beacon only, beacon with unlabeled JunLZ-Lb1b4, beacon with unlabeled FosLZ, beacon with unlabeled GCN4 244, and beacon with E3 peptide, respectively. […] Column A, B, C, D, E are beacon only, beacon with unlabeled K3-b1b3 peptide, beacon with E3 peptide, beacon with unlabeled GCN4 244, beacon with FosLZ.
(§4) So a concern about the binding specificity naturally arises. […] It is not a surprising result, since both peptides have leucine residues at all d positions, and that multiple electrostatic interactions exist between […].

The target of another experiment is T1, FosLZ (Homo sapiens, UniProt P01100).
T1 construct: TDTLQAE TDQLEDE KSALQTE IANLLKE KEKLEFI LA; made in house; host or cells: E. coli BL21(DE3)
Put plainly: Non-specific fluorescence enhancement (crosstalk) assay, FIG. 14, with FosLZ. Conditions: 100 nM beacon, 10 μM FosLZ, 580 nm, excitation 520 nm. Type of experiment: binding. As to the method:
as §3, §4

Another experiment deals with T2, unlabeled GCN4 244 (Saccharomyces cerevisiae, UniProt P03069, A244C/S225C).
T2 construct: […]; MKQLEDK; GGSGG linker (internal); made in house; host or cells: E. coli BL21(DE3)
Put plainly: Non-specific fluorescence enhancement (crosstalk) assay, FIG. 14, with unlabeled GCN4 244. Format: binding, yeast. The note with it: 100 nM beacon, 10 μM unlabeled GCN4 244, 580 nm, excitation 520 nm. The procedure:
as §3, §4

A further experiment has as its system unlabeled JunLZ-Lb1b4. Put plainly: Non-specific fluorescence enhancement (crosstalk) assay, FIG. 14A, with unlabeled JunLZ-Lb1b4. Type of experiment: binding. The note with it: 100 nM beacon, 10 μM unlabeled JunLZ-Lb1b4, 580 nm, excitation 520 nm. The procedure:
as §3, §4

The subject of experiment [3] is unrelated coiled coil-forming peptides. The experiment is described as follows: Crosstalk of beacon with unrelated peptides, overall. Type of experiment: binding. The note with it: FIG. 14. As to the method: as §3, §4
Experiment [4] concerns the target E3 peptide. The experiment is described as follows: CD spectra analysis of binding between unlabeled K3-b1b3 and E3 peptides. Conditions: curve fitting.
Experiment [5] deals with E3 peptide. Conditions: cited from earlier work.
Experiment [6] deals with AP-1 DNA. Put plainly: Absorbance spectra of GCN4 beacons with AP-1 DNA. Format: binding. The note with it: 1 μM beacon, 10 μM DNA. As to the method:
FIGS. 2A and 2B show line graphs of absorbance versus wavelength (nm). […] All samples contain 1 μM beacon, and concentration for DNA is 10 μM.
(§5) The AP-1 DNA and AT DNA were used for GCN-4 beacons binding assays as the target and control DNAs, respectively. Rex aptamer and TAR RNA were used for Rex beacon binding assays as the target and control RNAs, respectively. For detailed structures of Rex aptamer and TAR RNA, refer to PDB 1EXY and 1MNB, respectively.
As shown by the shifted absorbance peaks (i.e. shift of highest peak) in FIGS. 2A and 2B, both GCN4 225/237 and GCN4 225/244 beacons allow formation of TAMRA H-dimer. […] The GCN4 225/244 beacon was selected for further characterization.

Experiment [7] has as its system AP-1 DNA. Put plainly: Fluorescence titration of GCN4 beacon with AP-1 DNA. Format: binding. The note with it: titration of 100 nM beacon with increasing concentration of AP-1 DNA. The procedure:
(§6) Samples contain 100 nM GCN4 225/244 beacon and indicated concentration of DNA.
as §5

The next experiment deals with AT DNA. Put plainly: Fluorescence titration of GCN4 beacon with AT DNA (negative control). Type of experiment: binding. The note with it: 100 nM beacon. As to the method:
as §6, §5

Where two headings read alike, the source gives them in different places.

Consider “K ICALKAK IAALKAK ICALKAGY (SEQ ID NO: 12) with two 6-TAMRA fluorophores attached at the cysteines via maleimide [K3-b1b3 beacon]”, for which the Kd at E3 peptide [1] (curve fitting, 1 μM beacon titration, read-out: Kd value for binding between K3-b1b3 beacon and E3 peptide) came out at 766 nM; on E3 peptide [1] (curve fitting, titration of 10 nM beacon, read-out: Kd value for binding between K3-b1b3 beacon and E3 peptide), 738 nM; on E3 peptide [1] (read-out: Kd, result of 1 μM beacon titration (restated), 1 μM beacon titration) it was 766 nM. Also, the maximum fluorescence enhancement result in the experiment with E3 peptide [1] (titration of 1 μM K3-b1b3 beacon with E3 peptide) was “about 12 fold”. Moreover, the “effect on fluorescence emission of the beacon” value at wild-type MBP was “does not have effects”. In addition, at MBP-E3, the “binding by gel-shift assay” value is reported as “Specific binding”. Moreover, the “fluorescence enhancement compared with the beacon only sample” value worked out at 7.0 fold with E3 peptide [2], 1.6 fold at FosLZ, 1.2 fold on unlabeled GCN4 244 and 1.5 fold with unlabeled JunLZ-Lb1b4. For the same substance, the “non-specific fluorescence enhancement by unrelated peptides” value in experiment [3] is given as “no significant non-specific fluorescence enhancement”.
Regarding “unlabeled modified K3 peptide K ICALKAK IAALKAK ICALKA GY (SEQ ID NO:12) [K3-b1b3]”, the Kd at E3 peptide [4] is 45 nM.
Consider “original K3 peptide K IAALKEK IAALKEK IAALKE (SEQ ID NO:29)”, for which the Kd at E3 peptide [5] (literature value restated in Example 4, read-out: Kd value for binding between the K3 and E3 peptides) was 70 nM; on E3 peptide [5] (reported in the literature, read-out: Kd value for binding between the original K3 and E3 peptides), 70 nM.
As to “GCN4 225/244 beacon: GCN4 bZip S225C/A244C (SEQ ID NO: 27), fused to C-terminal end of MBP, TAMRA labelled”, the “change of absorbance spectrum in the presence of AP-1 DNA” value with AP-1 DNA [6] is reported as “significant alteration of its absorbance spectrum”. Moreover, the maximum fluorescence increase with AP-1 DNA [7] came to 4.3 fold. Further, the “effect of AT DNA on fluorescence” value in the experiment on AT DNA is “no effects”.
